Measurements taken from patent US4243668A, “Octahydro-1H-benzo[4,5]furo[3,2-e]-isoquinoline analgesic and narcotic antagonistic compounds” (priority 1979, dated 1981).

Columns and labels:
[1] = system: pain induced by phenylquinone; assay: phenylquinone writhing test (oral anti-PQW), analgesic activity; assay type: in vivo, female white mice; conditions: Mus musculus, po, mice, oral, phenylquinone writhing, ED50; read-out: EFFECT ED50 Oral Anti-PQW
Protocol: A standard procedure for detecting and comparing the analgesic activity of compounds in this series for which there is good correlation with human efficacy is the standard phenylquinone writhing test modified from Siegmund, et al., Proc. Soc. Exp. Biol. Med., 95, 729 (1957). A test compound suspended in 1% methocel® was given orally to fasted (17-21 hours) female white mice, 5-20 animals per double blind test. Aqueous (0.01% phenyl-p-benzoquinone) phenylquinone was injected intraperitoneally at 24 minutes later using 0.20 ml per mouse. […] The effective analgesic dose for 50% of the mice (ED50) was calculated by the moving average method of Thompson, W. R., Bact. Rev., 11, 115-145 (1947).

Straub tail = Straub tail reaction (oral), narcotic agonist effect; assay type: in vivo, CF1 S female mice; conditions: Mus musculus, mice
Protocol: Narcotic analgesics produce in mice an erection and arching of the tail (90° or more) which is referable to spinal cord stimulation. This Straub tail reaction is not produced by other analgesics, including the narcotic antagonists.
The method used was modified from Shemano, I., and Wendel, H., Tox. Appl. Pharm., 6, 334-9 (1964). CF1 S female mice (18-21 g), 10-20 mice per dose, were intubated with log scaled doses of analgesic in 1% aqueous methylcellulose. A positive Straub tail response was recorded if a tail was erected 90° or more for 5 seconds at any time within 24 minutes after dosing. A quantal Straub tail ED50 was calculated by the moving average method [Thompson, W. R., Bact. Rev., 11, 115-145 (1947)].

[2] = system: induction of Straub tail in mice by a highly addicting agonist such as morphine; assay: anti-Straub tail test, antagonism of morphine-induced Straub tail (narcotic antagonism); assay type: in vivo, Female CF1 S mice; conditions: Mus musculus, sc, mice, s.c.; vs morphine sulfate 30 mg/kg i.p.; read-out: EFFECT ED50 subcutaneous(s.c.) Anti-Straub Tail
[3] = cited from earlier work; for intrinsic analgesic activity, in words: background statement
[4] = system: induction of Straub tail in mice by a highly addicting agonist such as morphine; conditions: Blumberg et al. 1968; cited from earlier work

Row | SMILES | ED50 [1] | ED50 (Straub tail) | ED50 [2] | intrinsic analgesic activity, in words [3] | prevention of morphine-induced Straub tail, in words [4] | analgetic properties in man, in words ([3]; in man, Lasagna and Beecher 1954)
1 | CCCCCCN1CCC23c4cccc(OC)c4OC2CCCC3C1 (centres unmarked) [Example 27] | 7 mg/kg | 25 mg/kg | > 27 mg/kg |  |  | 
2 | COc1cccc2c1OC1CCCC3CN(CC(C)C)CCC231 (centres unmarked) [Example 31] | 94 mg/kg | > 135 mg/kg | 0.24 mg/kg |  |  | 
3 | CC(C)CN1CCC23c4cccc(O)c4OC2CCCC3C1 (centres unmarked) [Example 32] | 63 mg/kg | > 135 mg/kg | 0.03 mg/kg |  |  | 
4 | Oc1cccc2c1OC1CCCC3CN(CC4CCCCC4)CCC231 (centres unmarked) [Example 34] | 23 mg/kg | > 135 mg/kg | > 27 mg/kg |  |  | 
5 | COc1cccc2c1OC1CCCC3CN(CCc4ccc(C)cc4)CCC231 (centres unmarked) [Example 35] | 1.7 mg/kg | 52 mg/kg | 56 mg/kg |  |  | 
6 | Cc1ccc(CCN2CCC34c5cccc(O)c5OC3CCCC4C2)cc1 (centres unmarked) [Example 36] | 0.67 mg/kg | 39 mg/kg | > 81 mg/kg |  |  | 
7 | COc1cccc2c1OC1CCCC3CN(Cc4ccco4)CCC231 (centres unmarked) [Example 37] | 84 mg/kg | > 135 mg/kg | 12 mg/kg |  |  | 
8 | Oc1cccc2c1OC1CCCC3CN(Cc4ccco4)CCC231 (centres unmarked) [Example 38] | 108 mg/kg | > 135 mg/kg | 7.2 mg/kg |  |  | 
9 | COc1cccc2c1OC1CCCC3CN(Cc4cccs4)CCC231 (centres unmarked) [Example 41] | 48 mg/kg | > 135 mg/kg | > 27 mg/kg |  |  | 
10 | CC(C)=CCN1CCC2(C)c3cc(O)ccc3CC1C2C (centres unmarked) [Pentazocine, reference compound] | 56 mg/kg | > 135 mg/kg | 4 mg/kg |  |  | 
11 | C=CCN1CC[C@]23CCCC[C@H]2[C@H]1Cc1ccc(O)cc13 [levallorphan] |  |  |  | some analgesic effects |  | 
12 | C=CCN1CC[C@]23c4c5ccc(O)c4O[C@H]2[C@@H](O)C=C[C@H]3[C@H]1C5 [nalorphine] |  |  |  | some analgesic effects | prevent the induction of Straub tail in mice | analgetic properties in man
13 | C=CCN1CC[C@]23c4c5ccc(O)c4O[C@H]2C(=O)CC[C@@]3(O)[C@H]1C5 [naloxone] |  |  |  |  | prevent the induction of Straub tail in mice | 
